Values quoted from earlier work as cited in patent US20060247203A1, “Freeze-dried preparation containing methylcobalamin and process for producing the same” (EISAI CO., LTD., priority 2003, published 2006).

Tested on: patients with amyotrophic lateral sclerosis
Conditions: ALS patients; methylcobalamin 15 to 50 mg/once daily via intramuscular injection

C/C1=C2/[N-][C@H]([C@H](CC(N)=O)[C@@]2(C)CCC(=O)NC[C@@H](C)OP(=O)([O-])O[C@H]2[C@@H](O)[C@@H](n3cnc4cc(C)c(C)cc43)O[C@@H]2CO)[C@]2(C)N=C(/C(C)=C3N=C(/C=C4N=C1[C@@H](CCC(N)=O)C\4(C)C)[C@@H](CCC(N)=O)[C@]\3(C)CC(N)=O)[C@@H](CCC(N)=O)[C@]2(C)CC(N)=O.[CH3-].[Co+3] [methylcobalamin]
magnitude of compound muscle action potential: significant increase
subjective muscle strength: dose-dependent improvement
